Assay results taken from patent US20210008220A1, “PHARMACEUTICAL COMPOSITIONS CONTAINING POLYROTAXANES” (UNIVERSITY OF GEORGIA RESEARCH FOUNDATION, INC., priority 2018, published 2021).

Tests used:
[1] = system: NIO J774A.1 macrophage cells; assay: in vitro cytotoxicity, resazurin assay, NIO cells; format: cell-based; conditions: Mus musculus, J774.A1, 48 h, rPR-DFO at equivalent DFO concentrations, read-out: concentration inhibiting 50% cell viability
Description: Briefly, both NIO and IO J774A.1 macrophage cells were seeded in 96-well plates at a density of 3,000 cells/well, cultured at 37° C., 5% CO2 and 100% humidity with DMEM complete medium for 24 h. Cells were then treated with 1 mM free DFO or rPR-DFO at equivalent DFO concentrations (prepared by 1:3 serial dilutions) for 48 h; equivalent rPR-OH based on w/v to rPR-DFO concentrations was also investigated. Next, the substrate resazurin was dissolved in cell culture medium at a concentration of 44 μM, added to each well (100 μl), and incubated at 37° C. for 4 h. The fluorescence change was monitored by exciting at 560 nm and measuring emission at 590 nm with a SpectraMax Gemini EM microplate reader. Readings from wells without cells were used as Eblank, and the readings from control cells without treatment (Econtrol) represented 100% cell viability. The viability of treated cells was calculated by the following equation:

[2] = in humans; cited from earlier work
[3] = system: NIO mice (Balb/C); assay: acute toxicity in normal NIO mice; format: in vivo, mouse; conditions: single-dose 300 mg/kg DFO equiv or 100 mg/kg DFO equiv every 2 days x6, tail-vein, 14 days
Description: Normal NIO mice (Balb/C, Female, 6 weeks old), randomly divided into 7 groups (n=6), were treated with saline, single-dose (300 mg/kg DFO equiv) or multiple-dose (100 mg/kg DFO equiv every 2 days, six doses total) regimens of DFO, rPR-DFO, and rPR-OH (same concentrations as rPR-DFO based on w/v) via tail-vein injections (10 μL/g). Mice were monitored for 14 days for signs of acute toxicity based on body weight loss, changes in appetite, and changes in behavior such as altered gait and lethargy. The body weights of the mice were recorded every other day over the course of the study. Mice were euthanized by CO2 overdose on the 14th day. The lungs, heart, spleen, kidneys, brain and liver of animals were subsequently harvested, rinsed with fresh PBS, blotted dry with Whatman filter paper, and then weighed (note that organ weight is reported as mg of total organ weight per g of animal bw, mg/g). […] Mice also behaved normally and no changes in appetite were noted.

## CC(=O)N(O)CCCCCNC(=O)CCC(=O)N(O)CCCCCNC(=O)CCC(=O)N(O)CCCCCN [DFO, Deferoxamine]
[1]
  IC50: ~10 µM
[2]
  half-life (blood circulation): ca. 20 min
[3]
  acute toxicity based on body weights and organ weights: no apparent evidence of acute toxicity
